In ChEMBL document CHEMBL3272044, “Cholinergic compounds. 9. Cyclohexane analogues of deoxamuscarine and derivatives” (J Med Chem, 1977):

Organism: Cavia porcellus
Test: Activity at muscarinic receptor in guinea pig terminal ileum assessed as compound required for 50% effect relative to acetylcholine
Type: tissue-based

How did the Ratio turn out when C[N+](C)(C)C[C@H]1CC[C@@H](O)C1 was run?
The Ratio was 3590.

For C[N+](C)(C)C[C@H]1CCCC(=O)C1, which Ratio is on record?
The Ratio was 507.

C[C@H]1C[C@H](C[N+](C)(C)C)C[C@@H]1O was tested. Which Ratio did it give?
The Ratio was 100.

C[N+](C)(C)C[C@H]1CCC[C@H](O)C1 (relative stereo) was tested. Which Ratio did it give?
The Ratio was 2900.

Which Ratio does the source give for C[N+](C)(C)CC1CCCC1 here?
Its Ratio is 16.

How did the Ratio turn out when C[N+](C)(C)C[C@H]1CCC(=O)C1 was run?
Its Ratio is 50.

Which Ratio does the source give for C[C@@H]1C[C@H](C[N+](C)(C)C)C[C@@H]1O here?
The Ratio was 500.

For C[N+](C)(C)C[C@H]1CCC[C@@H](O)C1 (relative stereo), which Ratio is on record?
The Ratio was over 10000.

C[N+](C)(C)C[C@H]1CC[C@H](O)C1 was tested. Which Ratio did it give?
Its Ratio is 221.

C[C@H]1C[C@H](C[N+](C)(C)C)C[C@H]1O was tested. Which Ratio did it give?
The Ratio was 454.

CC1C[C@H](C[N+](C)(C)C)CC1=O (some centres not stated) was tested. Which Ratio did it give?
The Ratio was 0.5.

For C[N+](C)(C)CC1CC=CC1, which Ratio is on record?
Its Ratio is 11.

Which Ratio does the source give for C[C@@H]1C[C@H](C[N+](C)(C)C)C[C@H]1O here?
Its Ratio is 9.8.

Which Ratio does the source give for C[N+](C)(C)CC1CCCCC1 here?
Its Ratio is 203.

With C[N+](C)(C)C[C@@H]1CC=CCC1 as the compound, how does the Ratio read?
The Ratio was 269.

C[C@H]1CC[C@@H](C[N+](C)(C)C)C1 was tested. Which Ratio did it give?
Its Ratio is 100.

CC1=CC[C@@H](C[N+](C)(C)C)C1 was tested. Which Ratio did it give?
Its Ratio is 30.
